The record followed here is US20190209539A1, “THIOHYDANTOIN ANDROGEN RECEPTOR ANTAGONISTS FOR THE TREATMENT OF CANCER” (Janssen Pharmaceutica NV, priority 2016, published 2019).

Experiment [1] concerns the target T1, wild-type Androgen Receptor (AR-wt) (Homo sapiens, UniProt P10275).
T1 construct: expressed in transfected cells; host or cells: LNCaP AR (cs) cells with ARE firefly luciferase lentiviral construct
T1 sequence (P10275 1-920): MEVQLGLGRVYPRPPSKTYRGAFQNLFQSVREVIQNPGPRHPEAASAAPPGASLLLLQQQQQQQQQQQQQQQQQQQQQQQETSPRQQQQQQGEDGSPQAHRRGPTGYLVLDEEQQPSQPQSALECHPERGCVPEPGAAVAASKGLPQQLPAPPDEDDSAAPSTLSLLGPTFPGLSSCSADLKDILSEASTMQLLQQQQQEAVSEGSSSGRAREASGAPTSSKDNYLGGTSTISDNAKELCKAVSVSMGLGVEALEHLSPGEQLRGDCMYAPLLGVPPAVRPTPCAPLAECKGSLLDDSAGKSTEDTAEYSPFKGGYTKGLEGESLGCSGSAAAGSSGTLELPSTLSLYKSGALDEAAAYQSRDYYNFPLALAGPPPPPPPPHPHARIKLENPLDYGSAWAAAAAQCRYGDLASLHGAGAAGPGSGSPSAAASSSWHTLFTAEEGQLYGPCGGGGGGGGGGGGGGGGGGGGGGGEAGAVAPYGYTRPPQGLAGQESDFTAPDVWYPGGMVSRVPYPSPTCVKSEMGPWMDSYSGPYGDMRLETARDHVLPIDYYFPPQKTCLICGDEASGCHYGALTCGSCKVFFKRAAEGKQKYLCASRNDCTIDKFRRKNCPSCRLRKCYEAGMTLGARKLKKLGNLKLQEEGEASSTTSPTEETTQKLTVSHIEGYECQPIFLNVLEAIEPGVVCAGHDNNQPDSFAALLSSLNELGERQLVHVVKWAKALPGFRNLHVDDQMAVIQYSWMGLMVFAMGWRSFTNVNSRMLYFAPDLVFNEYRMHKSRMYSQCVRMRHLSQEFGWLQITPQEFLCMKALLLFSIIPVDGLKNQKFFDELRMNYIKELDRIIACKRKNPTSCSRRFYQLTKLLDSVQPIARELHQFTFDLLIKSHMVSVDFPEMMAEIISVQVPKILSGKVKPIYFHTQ
As to the kind of experiment: LNCaP-AR-wt AG: ARE luciferase reporter assay, agonist mode. The experiment is classed as cell-based. The settings on record: maximum % stimulation (agonist response), % of 1 μM R-1881 max. The protocol:
(§1) A stable pooled-population cell line was generated using puromycin (Life Technologies) selection at 1:10,000 v/v. The protocol below was used for both cell lines and for testing of the compounds of Formula (I) of the present invention.
(§2) LNCaP cells were grown to about 80% confluence, media removed and cells rinsed in Hank's balanced salt solution prior to separation from the plate with 0.05% Trypsin EDTA. Cells were lifted and trypsin negated in complete CSS (charcoal stripped serum) culture media. […] Agonist challenge was at 400 pM for WT assay and 600 pM for F876L assay. Plates containing cells and compounds herein were incubated for a further 20-24 hours at 37° C., 5% CO2 before addition of 40 μL/well of Steady-Glo Luciferase Assay System Reagent (Promega# E2520). After 1 h, plates were read for luminescence on a BMG Pherastar.
(§3) EC/IC50 calculations were achieved utilizing calculated RLU data and data fitting macros. Data were fit using least-squares methods to the following formula: […]
(§4) As used herein: pIC50 is defined as—Log10(IC50 expressed in [Molar]). pEC50 is defined as—Log10(EC50 expressed in [Molar]). […] LNCaP-AR-wt ANT refers to the reporter assay using LNCaP cells stably transfected with the Androgen Response Element Firefly Luciferase lentiviral construct and wild-type Androgen Receptor (AR-wt) in Antagonist mode. LNCaP-AR-wt AG refers to the reporter assay using LNCaP cells stably transfected with the Androgen Response Element Firefly Luciferase lentiviral construct and wild-type Androgen Receptor (AR-wt) in Agonist mode. LNCaP-AR-F876L ANT refers to the reporter assay using LNCaP cells stably transfected with the Androgen Response Element Firefly Luciferase lentiviral construct and F876L mutant Androgen Receptor (AR-F876L) in Antagonist mode. LNCaP-AR-F876L AG refers to the reporter assay using LNCaP cells stably transfected with the Androgen Response Element Firefly Luciferase lentiviral construct and F876L mutant Androgen Receptor (AR-F876L) in Agonist mode.
A general note: In a reporter assay the amount or activity of a reporter protein is the signal.

Experiment [2] concerns the target T2, F876L mutant Androgen Receptor (AR-F876L) (Homo sapiens, UniProt P10275, F877L).
T2 construct: expressed in transfected cells; host or cells: LNCaP F876L cells with ARE firefly luciferase lentiviral construct
T2 sequence (P10275 1-920 F877L): T1 sequence (P10275 1-920) with F877L
As to the kind of experiment: LNCaP-AR-F876L AG: ARE luciferase reporter assay, agonist mode. The settings on record: maximum % stimulation (agonist response), % of 1 μM R-1881 max. Format: cell-based. The protocol:
as §1, §2, §3, §4

Substitutions are numbered along the chain they refer to.

With `N#Cc1ncc(N2C(=O)C3(CCC3)N(c3ccc(OCCCN4CCCC4)c(F)c3)C2=S)cc1C(F)(F)F` [Cpd 55, 5-[8-[3-fluoro-4-(3-pyrrolidin-1-ylpropoxy)phenyl]-5-oxo-7-thioxo-6,8-diazaspiro[3.4]octan-6-yl]-3-(trifluoromethyl)pyridine-2-carbonitrile], in experiment [1], the “LNCaP-AR-wt AG MAX % Stim” value came out at 0.7%. Moreover, the “LNCaP-AR-F876L AG MAX % Stim” value in experiment [2] was 0.6%.

For `N#Cc1ncc(N2C(=O)C3(CCC3)N(c3ccc(C(=O)NCc4cccnc4)c(F)c3)C2=S)cc1C(F)(F)F` [Cpd 67, 4-[6-[6-cyano-5-(trifluoromethyl)-3-pyridyl]-5-oxo-7-thioxo-6,8-diazaspiro[3.4]octan-8-yl]-2-fluoro-N-(3-pyridylmethyl)benzamide], the “LNCaP-AR-wt AG MAX % Stim” value in experiment [1] was 1.5%. Moreover, the “LNCaP-AR-F876L AG MAX % Stim” value in experiment [2] is 0.8%.

As for `Cc1cncc(-c2ccc(N3C(=S)N(c4cnc(C#N)c(C)c4)C(=O)C34CCC4)cc2)c1` [Cpd 114, 3-methyl-5-[8-[4-(5-methyl-3-pyridyl)phenyl]-5-oxo-7-thioxo-6,8-diazaspiro[3.4]octan-6-yl]pyridine-2-carbonitrile], the “LNCaP-AR-wt AG MAX % Stim” value in experiment [1] is reported as 0.7%. In experiment [2], the “LNCaP-AR-F876L AG MAX % Stim” value amounted to 3.3%.

With `Cc1cc(N2C(=O)C3(CCC3)N(c3ccc(C4CCOCC4)cc3)C2=S)cnc1C#N` [Cpd 101, 3-methyl-5-[5-oxo-8-(4-tetrahydropyran-4-ylphenyl)-7-thioxo-6,8-diazaspiro[3.4]octan-6-yl]pyridine-2-carbonitrile], the “LNCaP-AR-wt AG MAX % Stim” value in experiment [1] came out at 1.1%. The “LNCaP-AR-F876L AG MAX % Stim” value in experiment [2] is reported as 1.7%.

Regarding `N#Cc1ncc(N2C(=O)C3(CCC3)N(c3ccc(C(=O)NCCCc4ccccc4)c(F)c3)C2=S)cc1C(F)(F)F` [Cpd 57, 4-[6-[6-cyano-5-(trifluoromethyl)-3-pyridyl]-5-oxo-7-thioxo-6,8-diazaspiro[3.4]octan-8-yl]-2-fluoro-N-(3-phenylpropyl)benzamide], the “LNCaP-AR-wt AG MAX % Stim” value in experiment [1] is given as 0.0%. Also, the “LNCaP-AR-F876L AG MAX % Stim” value in experiment [2] was determined as 0.5%.

For `Cc1cc(N2C(=O)C3(CCC3)N(c3ccc(-c4cncnc4)cc3)C2=S)cnc1C#N` [Cpd 93, 3-methyl-5-[5-oxo-8-(4-pyrimidin-5-ylphenyl)-7-thioxo-6,8-diazaspiro[3.4]octan-6-yl]pyridine-2-carbonitrile], in experiment [1], the “LNCaP-AR-wt AG MAX % Stim” value came to 0.9%. The “LNCaP-AR-F876L AG MAX % Stim” value in experiment [2] is on record as 0.8%.

Take `CC(C)(O)CNC(=O)c1ccc(N2C(=S)N(c3cnc(C#N)c(C(F)(F)F)c3)C(=O)C23CCC3)cc1F` [Cpd 17, 4-[6-[6-cyano-5-(trifluoromethyl)-3-pyridyl]-5-oxo-7-thioxo-6,8-diazaspiro[3.4]octan-8-yl]-2-fluoro-N-(2-hydroxy-2-methyl-propyl)benzamide]: the “LNCaP-AR-wt AG MAX % Stim” value in experiment [1] is reported as −0.1%. For the same compound, the “LNCaP-AR-F876L AG MAX % Stim” value in experiment [2] was determined as 0.1%.

In the case of `CC(C)CCNC(=O)c1ccc(N2C(=S)N(c3cnc(C#N)c(C(F)(F)F)c3)C(=O)C23CCC3)cc1F` [Cpd 27, 4-[6-[6-cyano-5-(trifluoromethyl)-3-pyridyl]-5-oxo-7-thioxo-6,8-diazaspiro[3.4]octan-8-yl]-2-fluoro-N-isopentyl-benzamide], the “LNCaP-AR-wt AG MAX % Stim” value in experiment [1] was 0.4%. For the same compound, the “LNCaP-AR-F876L AG MAX % Stim” value in experiment [2] worked out at 0.2%.

In the case of `N#Cc1ncc(N2C(=O)C3(CCC3)N(c3ccc(Oc4ccccn4)cc3)C2=S)cc1C(F)(F)F` [Cpd 103, 5-[5-oxo-8-[4-(2-pyridyloxy)phenyl]-7-thioxo-6,8-diazaspiro[3.4]octan-6-yl]-3-(trifluoromethyl)pyridine-2-carbonitrile], in experiment [1], the “LNCaP-AR-wt AG MAX % Stim” value amounted to 4.0%. Also, the “LNCaP-AR-F876L AG MAX % Stim” value in experiment [2] worked out at 2.0%.

For `COCCNC(=O)c1ccc(N2C(=S)N(c3cnc(C#N)c(C(F)(F)F)c3)C(=O)C23CCC3)cc1F` [Cpd 46, 4-[6-[6-cyano-5-(trifluoromethyl)-3-pyridyl]-5-oxo-7-thioxo-6,8-diazaspiro[3.4]octan-8-yl]-2-fluoro-N-(2-methoxyethyl)benzamide], in experiment [1], the “LNCaP-AR-wt AG MAX % Stim” value is reported as −0.1%. Also, the “LNCaP-AR-F876L AG MAX % Stim” value in experiment [2] is 0.2%.

For the compound `Cc1cc(N2C(=O)C3(CCC3)N(c3ccc(Oc4ccncn4)cc3)C2=S)cnc1C#N` [Cpd 62, 3-methyl-5-[5-oxo-8-(4-pyrimidin-4-yloxyphenyl)-7-thioxo-6,8-diazaspiro[3.4]octan-6-yl]pyridine-2-carbonitrile], the “LNCaP-AR-wt AG MAX % Stim” value in experiment [1] stood at 0.8%. The “LNCaP-AR-F876L AG MAX % Stim” value in experiment [2] turned out to be 0.4%.

Turning to `N#Cc1ncc(N2C(=O)C3(CCC3)N(c3ccc(Oc4cncnc4)cc3)C2=S)cc1C(F)(F)F` [Cpd 88, 5-[5-oxo-8-(4-pyrimidin-5-yloxyphenyl)-7-thioxo-6,8-diazaspiro[3.4]octan-6-yl]-3-(trifluoromethyl)pyridine-2-carbonitrile], in experiment [1], the “LNCaP-AR-wt AG MAX % Stim” value was 0.7%. Besides, the “LNCaP-AR-F876L AG MAX % Stim” value in experiment [2] is on record as 0.7%.

Consider `N#Cc1ncc(N2C(=O)C3(CCC3)N(c3ccc4[nH]ncc4c3)C2=S)cc1C(F)(F)F` [Cpd 92, 5-[8-(1H-indazol-5-yl)-5-oxo-7-thioxo-6,8-diazaspiro[3.4]octan-6-yl]-3-(trifluoromethyl)pyridine-2-carbonitrile], for which, in experiment [1], the “LNCaP-AR-wt AG MAX % Stim” value is 2.8%. Moreover, the “LNCaP-AR-F876L AG MAX % Stim” value in experiment [2] amounted to 1.3%.

Consider `Cc1cc(N2C(=O)C3(CCC3)N(c3ccc(OC4CCOCC4)cc3)C2=S)cnc1C#N` [Cpd 87, 3-methyl-5-[5-oxo-8-(4-tetrahydropyran-4-yloxyphenyl)-7-thioxo-6,8-diazaspiro[3.4]octan-6-yl]pyridine-2-carbonitrile], for which the “LNCaP-AR-wt AG MAX % Stim” value in experiment [1] is 1.1%. Moreover, the “LNCaP-AR-F876L AG MAX % Stim” value in experiment [2] is on record as 0.9%.
